Patent publication US20110185440A1, “CISD2-Knockout Mice and Uses Thereof” (NATIONAL YANG-MING UNIVERSITY, priority 2006, published 2011)

What was measured:
Cisd2 knockout mice [1] = experiment: Body weight of Cisd2 knockout mice after oral resveratrol treatment; format: in vivo, mouse; details: 30 mg/kg/day oral from 4- to 12-week old; effect after 8-week old; P<0.05 vs untreated control
Experimental: (17A) Oral administration of resveratrol (30 mg/kg/day) to Cisd2 knockout mice from 4- to 12-week old. (17B) To analyze the body weight of the Cisd2 knockout mice after resveratrol treatment and compare to 4-week old wild-type mice. Values represent mean±s.d from at least three male samples. Asterisks indicate statistically significant differences compare with untreated control. (*, P<0.05) Resveratrol (30 mg/kg/day) was administered by oral to Cisd2 knockout mice from 4- to 12-week old. The body weight of the Cisd2 knockout mice was analyzed after resveratrol treatment and comparing to 4-week old wild-type mice (FIG. 17).

Cisd2 knockout mice [2] = experiment: Muscle and neuron degeneration in Cisd2 knockout mice after resveratrol treatment (H&E staining, TEM); format: in vivo, mouse; details: 30 mg/kg/day oral from 4- to 12-week old
Source text: (18A-F) H&E staining of transverse sections of skeletal muscle dissected from the 12-week old, male Cisd2 knockout mice with (18A) untreated control, (18B) resveratrol or (18C) H2O treatment, and (18D-F) relative wild-type control. Black arrowheads indicate degenerated transverse fibers. Blue arrows indicate angular fibres which are the evidences of muscle atrophy caused by neuron degeneration. (18G) The standard quantification score of muscle atrophy. (18H) The quantification of degenerative muscle fiberin under resveratrol treated or not. About 1000 muscle fibre in random fields of H&E staining slides were examined for each mouse. Values represent mean±s.d from at least three male samples. […] Myelin sheath degeneration (asterisks) was detected only in the Cisd2 knockout mice. […] (18U) The standard quantification score of axon and myelin sheath degeneration. (18V) The quantification of degenerative sciatic nerve in wild-type, Cisd2 knockout and Cisd2 knockout mice with resveratrol treatment, respectively. […] The standard quantification score of muscle atrophy was prepared. The quantification of degenerative muscle fiberin was measured under resveratrol treated or not. […] Myelin sheath degeneration was detected only in the Cisd2 knockout mice. The standard quantification score of axon and myelin sheath degeneration was created. […]

## Oc1ccc(C=Cc2cc(O)cc(O)c2)cc1 [Resveratrol]
Cisd2 knockout mice [1]
  body weight of Cisd2 knockout mice: significant reverse
Cisd2 knockout mice [2]; 12-week old male mice, skeletal muscle H&E, skeletal and cardiac muscle ultrastructure
  muscle degeneration of the Cisd2 knockout mice: partial rescue
Cisd2 knockout mice [2]; 12-week old mice, sciatic nerve TEM, axon and myelin sheath degeneration
  neuron degeneration of the Cisd2 knockout mice: partial rescue
